Test results reported in patent US7182954B1, “Prebiotic oligosaccharides via alternansucrase acceptor reactions” (priority 2003, dated 2007).

Test system: alternansucrase
Assay: Comparison of acceptor strengths with alternansucrase, relative amount of alternan formed
Conditions: for Alternan (Rel. %): 45 μL 10% (w/v) sucrose, 45 μL 10% (w/v) acceptor, 10 μL alternansucrase, pH 5.4, room temperature, less alternan = stronger acceptor; for acceptor strength for alternansucrase, in words: text summary of Table I

Compound	Alternan (Rel. %)	reduction in the amount of alternan formed (acceptor added at the same initial level as other disaccharides)	acceptor strength for alternansucrase, in words
O=C(CO)[C@@H](O)[C@H](O)[C@@H](O)CO [L-sorbose]	88 Rel. %		
CC(=O)N[C@H]1C(O)O[C@H](CO)[C@H](O)[C@@H]1O (stereo partly drawn) [N-acetyl-D-galactosamine]	88 Rel. %		
CC(=O)N[C@H]1C(O)O[C@H](CO)[C@@H](O)[C@@H]1O (stereo partly drawn) [N-acetyl-D-glucosamine]	90 Rel. %		
CC(=O)N[C@@H]1C(O)O[C@H](CO)[C@@H](O)[C@@H]1O (stereo partly drawn) [N-acetyl-D-mannosamine]	93 Rel. %		
O=C[C@H](O)[C@@H](O)[C@H](O[C@@H]1O[C@H](CO)[C@@H](O)[C@H](O)[C@H]1O)[C@H](O)CO [cellobiose]	72 Rel. %		
OC[C@H]1O[C@@H]2OC[C@H]3O[C@H](O[C@@H]4[C@@H](O)[C@@H](OC[C@H]5O[C@H](O[C@H]([C@H]2O)[C@@H]1O)[C@H](O)[C@@H](O)[C@@H]5O)O[C@H](CO)[C@H]4O)[C@H](O)[C@@H](O)[C@@H]3O [cycloGlc4 (cyclo-alternan), cycloalternan]	90 Rel. %		
OC[C@@H](O)[C@H](O)[C@H](O)[C@@H](O)CO [dulcitol]	101 Rel. %		
O=C[C@@H](O)[C@H](O[C@@H]1O[C@H](CO)[C@H](O)[C@H](O)[C@H]1O)[C@H](O)CO [galactosyl-arabinose, 3-O-β-D-galactopyranosyl-D-arabinose]	90 Rel. %		
OC[C@H]1O[C@@](CO)(O[C@H]2O[C@H](CO[C@@H]3O[C@H](CO)[C@@H](O)[C@H](O)[C@H]3O)[C@@H](O)[C@H](O)[C@H]2O)[C@@H](O)[C@@H]1O [gentianose]	66 Rel. %		
OC[C@H]1O[C@H](OC[C@H]2OC(O)[C@H](O)[C@@H](O)[C@@H]2O)[C@H](O)[C@@H](O)[C@@H]1O (stereo partly shown) [isomaltose]	44 Rel. %		
OC[C@H]1O[C@H](OC[C@H]2O[C@H](OC[C@H]3OC(O)[C@H](O)[C@@H](O)[C@@H]3O)[C@H](O)[C@@H](O)[C@@H]2O)[C@H](O)[C@@H](O)[C@@H]1O (stereo partly shown) [isomaltotriose]	50 Rel. %		
OC[C@H]1O[C@H](O[C@H]2C(O)O[C@H](CO)[C@@H](O)[C@@H]2O)[C@H](O)[C@@H](O)[C@@H]1O (stereo partly shown) [kojibiose]	27 Rel. %		
OC[C@H]1O[C@H](O[C@H]2[C@@H](O[C@H]3C(O)O[C@H](CO)[C@@H](O)[C@@H]3O)O[C@H](CO)[C@@H](O)[C@@H]2O)[C@H](O)[C@@H](O)[C@@H]1O (stereo partly shown) [kojitriose]	86 Rel. %		
OC[C@H]1O[C@@H](O[C@H]2[C@H](O)[C@@H](O)C(O)O[C@@H]2CO)[C@H](O)[C@@H](O)[C@H]1O (stereo partly shown) [lactose]	79 Rel. %		
OC[C@H]1O[C@@H](O[C@H]2[C@H](O)[C@@H](CO)OC(O)[C@@H]2O)[C@H](O)[C@@H](O)[C@@H]1O (stereo partly shown) [laminaribiose]	58 Rel. %		
OC[C@H]1O[C@H](O[C@@H]2COC(O)(CO)[C@@H](O)[C@@H]2O)[C@H](O)[C@@H](O)[C@@H]1O (stereo partly shown) [leucrose]	81 Rel. %	19%	
OC[C@@H](O)[C@@H](O[C@H]1O[C@H](CO)[C@@H](O)[C@H](O)[C@H]1O)[C@H](O)[C@@H](O)CO [maltitol]	18 Rel. %		excellent acceptor
OC[C@H]1O[C@H](O[C@H]2[C@H](O)[C@@H](O)[C@H](O)O[C@@H]2CO)[C@H](O)[C@@H](O)[C@@H]1O [maltose]	11 Rel. %		excellent acceptor
OC[C@@H](O)[C@@H](O)[C@H](O)[C@H](O)CO [mannitol]	100 Rel. %		
OC[C@H]1O[C@@](CO)(O[C@H]2O[C@H](CO)[C@@H](O)[C@H](O)[C@H]2O)[C@@H](O[C@H]2O[C@H](CO)[C@@H](O)[C@H](O)[C@H]2O)[C@@H]1O [melezitose]	90 Rel. %		
OC[C@H]1O[C@H](OCC2O[C@@H](O)[C@H](O)[C@@H](O)[C@@H]2O)[C@H](O)[C@@H](O)[C@H]1O (stereo partly shown) [melibiose]	45 Rel. %		relatively good acceptors
O[C@H]1[C@H](O)[C@@H](O)[C@H](O)[C@@H](O)[C@H]1O [myo-inositol]	99 Rel. %		
OC[C@H]1O[C@H](O[C@H]2[C@H](O)[C@@H](CO)OC(O)[C@@H]2O)[C@H](O)[C@@H](O)[C@@H]1O (stereo partly shown) [nigerose]	23 Rel. %		

Compound	Alternan (Rel. %)	reduction in the amount of alternan formed (acceptor added at the same initial level as other disaccharides)	acceptor strength for alternansucrase, in words
OC[C@H]1O[C@H](OC[C@H]2OC(O)(CO)[C@@H](O)[C@@H]2O)[C@H](O)[C@@H](O)[C@@H]1O (stereo partly shown) [palatinose]	69 Rel. %		
OC[C@H]1O[C@H](OC[C@H]2O[C@H](O[C@H]3[C@H](O)[C@@H](O)C(O)O[C@@H]3CO)[C@H](O)[C@@H](O)[C@@H]2O)[C@H](O)[C@@H](O)[C@@H]1O (stereo partly shown) [panose]	25 Rel. %		
OC[C@H]1O[C@H](OC[C@H]2O[C@@](CO)(O[C@H]3O[C@H](CO)[C@@H](O)[C@H](O)[C@H]3O)[C@@H](O)[C@@H]2O)[C@H](O)[C@@H](O)[C@H]1O [planteose]	76 Rel. %		
OC[C@H]1O[C@H](OC[C@H]2O[C@H](O[C@]3(CO)O[C@H](CO)[C@@H](O)[C@@H]3O)[C@H](O)[C@@H](O)[C@@H]2O)[C@H](O)[C@@H](O)[C@H]1O [raffinose]	67 Rel. %		relatively good acceptors
OC[C@H]1O[C@@H](O[C@H]2C(O)O[C@H](CO)[C@@H](O)[C@@H]2O)[C@H](O)[C@@H](O)[C@@H]1O (stereo partly shown) [sophorose]	80 Rel. %		
OC[C@@H](O)[C@@H](O)[C@H](O)[C@@H](O)CO [sorbitol]	82 Rel. %		
OC[C@H]1O[C@H](OC[C@H]2O[C@H](OC[C@H]3O[C@H](O[C@]4(CO)O[C@H](CO)[C@@H](O)[C@@H]4O)[C@H](O)[C@@H](O)[C@@H]3O)[C@H](O)[C@@H](O)[C@H]2O)[C@H](O)[C@@H](O)[C@H]1O [stachyose]	89 Rel. %		
OC[C@H]1O[C@@](CO)(O[C@H]2O[C@H](CO[C@H]3O[C@H](CO)[C@@H](O)[C@H](O)[C@H]3O)[C@@H](O)[C@H](O)[C@H]2O)[C@@H](O)[C@@H]1O [theanderose]	42 Rel. %		
O=C(CO)[C@@H](O[C@H]1O[C@H](CO)[C@@H](O)[C@H](O)[C@H]1O)[C@H](O)[C@H](O)CO [turanose]	57 Rel. %		
OC[C@@H](O)[C@H](O)[C@@H](O)CO [xylitol]	97 Rel. %		
OC[C@H]1O[C@H](O[C@H]2O[C@H](CO)[C@@H](O)[C@H](O)[C@H]2O)[C@H](O)[C@@H](O)[C@@H]1O [α,α-trehalose]	102 Rel. %		not an acceptor
CO[C@H]1O[C@H](CO)[C@H](O)[C@H](O)[C@H]1O [α-methyl-D-galactoside, α-methyl-D-galactopyranoside]	73 Rel. %		
CO[C@H]1O[C@H](CO)[C@@H](O)[C@H](O)[C@H]1O [α-methyl-D-glucoside, α-methyl-D-glucopyranoside]	20 Rel. %		
CO[C@H]1O[C@H](CO)[C@@H](O)[C@H](O)[C@@H]1O [α-methyl-D-mannoside, α-methyl-D-mannopyranoside]	70 Rel. %		
CCCCCCCCCCCCO[C@@H]1O[C@H](CO)[C@@H](O[C@H]2O[C@H](CO)[C@@H](O)[C@H](O)[C@H]2O)[C@H](O)[C@H]1O [β-dodecyl maltoside]	83 Rel. %		
CO[C@@H]1O[C@H](CO)[C@H](O)[C@H](O)[C@H]1O [β-methyl-D-galactoside, β-methyl-D-galactopyranoside]	94 Rel. %		
CO[C@@H]1O[C@H](CO)[C@@H](O)[C@H](O)[C@H]1O [β-methyl-D-glucoside]	60 Rel. %		
CO[C@@H]1O[C@H](CO)[C@@H](O)[C@H](O)[C@@H]1O [β-methyl-D-mannoside]	89 Rel. %		
COC1OCC(O)C(O)C1O [β-methyl-D-xyloside]	96 Rel. %		
CCCCCCCCO[C@@H]1O[C@H](CO)[C@@H](O)[C@H](O)[C@H]1O [β-octyl D-glucoside, β-octyl-D-glucopyranoside]	52 Rel. %		
gentiobiose	25 Rel. %		surprisingly good acceptor
maltotriose	65 Rel. %		
